In US8501450B2, “Hepatitis C virus variants” (priority 2005, dated 2013):
Several values for one entry are separate records, joined by “and”; a condition that tells them apart may be missing. Equal entries are not always repeated.

What was measured:
[1] = tested on: wild-type HCV replicon Con1-mADE cells; assay: microbe, parasite or virus in culture; details: Hepatitis C virus, 48 h, read-out: Replicon IC50
From the text: (§1) The stable wild-type (mADE) and variant HCV sub-genomic replicon cell lines were generated using the T7 RNA runoff transcripts from the corresponding high efficiency Con1 replicon plasmids.
(§2) The stable wild-type and variant HCV sub-genomic replicon cell lines were generated using the 17 RNA runoff transcripts from the corresponding high efficiency Con1 replicon plasmids.

[2] = tested on: wild-type HCV replicon Con1-mADE cells; details: for Fold change of replicon IC50: wild-type replicon relative to itself
From the text: as §1, §2

[3] = tested on: HCV replicon cells, NS3 R155T variant; details: for Fold change of replicon IC50: R155T IC50 divided by wild-type replicon IC50
From the text: as §1, §2

[4] = molecular target: HCV NS3 protease T54A mutant (UniProt P27958, T1080A, species not given); details: enzyme IC50 vs genotype 1a HCV-H reference strain
[5] = molecular target: HCV NS3 protease A156T mutant (UniProt P27958, A1182T, species not given); details: enzyme IC50 vs genotype 1a HCV-H reference strain
[6] = tested on: HCV replicon cells, NS3 R155K variant
From the text: as §1, §2

[7] = tested on: HCV replicon cells, NS3 R155M variant
From the text: as §1, §2

[8] = tested on: HCV variant mixture in patient plasma; assay: Average phenotype for each patient; assay type: in vivo, patients; details: for Average Phenotype: individual subjects
From the text: The genotypic analyses performed here allowed a detailed examination of the relative proportion of different resistant mutants within each patient. To better understand the level of phenotypic resistance conferred by these viral mixtures, exploratory analyses were done to obtain an average phenotype for each patient. The percent of virions with a given single or double mutation was multiplied by the average fold change in enzyme IC50 for that given mutant (Table 3), and then all values were added for each patient. […] An analysis correlating pharmacokinetic data with resistance patterns is currently underway.

[9] = patients that continued to decline, follow-up
[10] = plateau group of patients, Day 14
[11] = rebound group of patients, Day 14
[12] = rebound group of patients, follow-up

Compound: NC(=O)c1ncn([C@@H]2O[C@H](CO)[C@@H](O)[C@H]2O)n1 [Ribavirin, 1-beta-D-ribofuranosyl-1H-1,2,4-triazole-3-carboxamide]
- IC50 [1]: 58 ± 18 µM
- Fold change of replicon IC50 [2]: 1.0 ± 0.3 fold
- Fold change of replicon IC50 [3]: 0.6 ± 0.3 fold

Compound: COc1ccc2c(O[C@@H]3C[C@H]4C(=O)N[C@]5(C(=O)O)C[C@H]5/C=C\CCCCC[C@H](NC(=O)OC5CCCC5)C(=O)N4C3)cc(-c3csc(NC(C)C)n3)nc2c1 [BILN 2061]
- Fold change [4]: 2.3 fold
- Fold change [5]: >183 fold

Compound: IFN-α
- Fold change of replicon IC50 ([6]; R155K IC50 divided by wild-type replicon IC50): 1.3 ± 1.1 fold
- Replicon IC50 ([6]; R155K replicon, 48-h assay, mean ± SD of three experiments): 15.2 ± 12.3 U/ml
- Fold change of replicon IC50 [2]: 1.0 ± 0.1 fold
- Replicon IC50 ([2]; wild-type replicon, 48-h assay, mean ± SD of three experiments): 11.6 ± 1.1 U/ml
- Fold change of replicon IC50 [3]: 0.4 ± 0.3 fold
- Replicon IC50 ([3]; R155T replicon, 48-h assay, mean ± SD of three experiments): 4.8 ± 3.3 U/ml
- Fold change of replicon IC50 ([7]; R155M IC50 divided by wild-type replicon IC50): 0.4 ± 0.1 fold
- Replicon IC50 ([7]; R155M replicon, 48-h assay, mean ± SD of three experiments): 4.9 ± 1.0 U/ml

Compound: CCC[C@H](NC(=O)[C@@H]1[C@H]2CCC[C@H]2CN1C(=O)[C@@H](NC(=O)[C@@H](NC(=O)c1cnccn1)C1CCCCC1)C(C)(C)C)C(=O)C(=O)NC1CC1 [VX-950]
- IC50 [1]: 0.485 ± 0.108 µM
- Average Phenotype ([8]; 450 mg, FU (7-10 days after ETR)): 28.94 and 3.13 and 8.65 and 1.14 and 0.83 and 29.43 and 14.81
- Average Phenotype ([8]; 750 mg, ETR (Day 14)): 466.14 and 466.00
- Average Phenotype ([8]; 750 mg, FU (7-10 days after ETR)): 9.33 and 45.74 and 126.48 and 9.65 and 3.17 and 4.92 and 0.00
- Average Phenotype ([8]; 1250 mg, ETR (Day 14)): 10.15 and 26.13 and 9.38 and 14.39 and 14.59 and 47.49 and 147.96 and 25.96 and 466.00
- Average Phenotype ([8]; 1250 mg, FU (7-10 days after ETR)): 9.39 and 26.03 and 10.65 and 12.33 and 15.28 and 15.38 and 7.93 and 1.87 and 30.97
- Average phenotype, mean value [8, 9]: 4
- Average phenotype, range [8, 9]: 0-10
- Average phenotype, mean value [8, 10]: 272
- Average phenotype, range [8, 10]: 26-466
- Average phenotype, mean value ([8]; plateau group of patients, follow-up): 32
- Average phenotype, mean value [8, 11]: 27
- Average phenotype, range [8, 11]: 6-70
- Average phenotype, mean value [8, 12]: 15
- Average phenotype, range [8, 12]: 3-29
